Laboratory results: ChEMBL document CHEMBL1153884, “Oligonucleotide-polyamine conjugates: influence of length and position of 2'-attached polyamines on duplex stability and antisense effect” (2009)

Columns and labels:
[1] = system: Nucleic Acid; assay: Duplex stability of RNA counter strand assessed as melting temperature; assay type: nucleic-acid assay
[2] = system: Nucleic Acid; assay: Duplex stability of DNA counter strand assessed as melting temperature; assay type: nucleic-acid assay

Structure (SMILES)	Tm [1] [°C]	Tm [2] [°C]
Cc1cn([C@H]2C[C@H](OP(=O)(O)OC[C@H]3O[C@@H](n4cnc5c(N)ncnc54)[C@H](O)[C@@H]3OP(=O)(O)OC[C@H]3O[C@@H](n4ccc(N)nc4=O)[C@H](O)[C@@H]3OP(=O)(O)OC[C@H]3O[C@@H](n4ccc(N)nc4=O)[C@H](O)[C@@H]3OP(=O)(O)OC[C@H]3O[C@@H](n4cnc5c(=O)[nH]c(N)nc54)[C@H](O)[C@@H]3OP(=O)(O)OC[C@H]3O[C@@H](n4ccc(N)nc4=O)[C@H](O)[C@@H]3OP(=O)(O)OC[C@H]3O[C@@H](n4cnc5c(=O)[nH]c(N)nc54)[C@H](O)[C@@H]3OP(=O)(O)OC[C@H]3O[C@@H](n4cc(C)c(=O)[nH]c4=O)C[C@@H]3OP(=O)(O)OC[C@H]3O[C@@H](n4cnc5c(=O)[nH]c(N)nc54)[C@H](O)[C@@H]3OP(=O)(O)OC[C@H]3O[C@@H](n4ccc(N)nc4=O)[C@H](O)[C@@H]3OP(=O)(O)OC[C@H]3O[C@@H](n4cnc5c(=O)[nH]c(N)nc54)[C@H](O)[C@@H]3OP(=O)(O)OC[C@H]3O[C@@H](n4cnc5c(N)ncnc54)[C@H](O)[C@@H]3OP(=O)(O)OC[C@H]3O[C@@H](n4ccc(N)nc4=O)[C@H](O)[C@@H]3OP(=O)(O)OC[C@H]3O[C@@H](n4ccc(N)nc4=O)[C@H](O)[C@@H]3OP(=O)(O)OC[C@H]3O[C@@H](n4ccc(N)nc4=O)[C@H](O)[C@@H]3OP(=O)(O)OC[C@H]3O[C@@H](n4cc(C)c(=O)[nH]c4=O)C[C@@H]3OP(=O)(O)OC[C@H]3O[C@@H](n4ccc(N)nc4=O)[C@H](O)[C@@H]3OP(=O)(O)OC[C@H]3O[C@@H](n4ccc(=O)[nH]c4=O)[C@H](NCCCNCCCCNCCCN)[C@@H]3O)[C@@H](CO)O2)c(=O)[nH]c1=O	63	80
Cc1cn([C@H]2C[C@H](OP(O)(=S)OC[C@H]3O[C@@H](n4cnc5c(N)ncnc54)[C@H](O)[C@@H]3OP(O)(=S)OC[C@H]3O[C@@H](n4ccc(N)nc4=O)[C@H](O)[C@@H]3OP(O)(=S)OC[C@H]3O[C@@H](n4ccc(N)nc4=O)[C@H](O)[C@@H]3OP(O)(=S)OC[C@H]3O[C@@H](n4cnc5c(=O)[nH]c(N)nc54)[C@H](O)[C@@H]3OP(O)(=S)OC[C@H]3O[C@@H](n4ccc(N)nc4=O)[C@H](O)[C@@H]3OP(O)(=S)OC[C@H]3O[C@@H](n4cnc5c(=O)[nH]c(N)nc54)[C@H](O)[C@@H]3OP(O)(=S)OC[C@H]3O[C@@H](n4cc(C)c(=O)[nH]c4=O)C[C@@H]3OP(O)(=S)OC[C@H]3O[C@@H](n4cnc5c(=O)[nH]c(N)nc54)[C@H](O)[C@@H]3OP(O)(=S)OC[C@H]3O[C@@H](n4ccc(N)nc4=O)[C@H](O)[C@@H]3OP(O)(=S)OC[C@H]3O[C@@H](n4cnc5c(=O)[nH]c(N)nc54)[C@H](O)[C@@H]3OP(O)(=S)OC[C@H]3O[C@@H](n4cnc5c(N)ncnc54)[C@H](O)[C@@H]3OP(O)(=S)OC[C@H]3O[C@@H](n4ccc(N)nc4=O)[C@H](O)[C@@H]3OP(O)(=S)OC[C@H]3O[C@@H](n4ccc(N)nc4=O)[C@H](O)[C@@H]3OP(O)(=S)OC[C@H]3O[C@@H](n4ccc(N)nc4=O)[C@H](O)[C@@H]3OP(O)(=S)OC[C@H]3O[C@@H](n4cc(C)c(=O)[nH]c4=O)C[C@@H]3OP(O)(=S)OC[C@H]3O[C@@H](n4ccc(N)nc4=O)[C@H](O)[C@@H]3OP(O)(=S)OC[C@H]3O[C@@H](n4ccc(=O)[nH]c4=O)[C@H](NCCCNCCCCNCCCN)[C@@H]3O)[C@@H](CO)O2)c(=O)[nH]c1=O (some centres not stated)	53.2	74.3
Cc1cn([C@H]2C[C@H](OP(=O)(O)OC[C@H]3O[C@@H](n4cnc5c(N)ncnc54)[C@H](O)[C@@H]3OP(=O)(O)OC[C@H]3O[C@@H](n4ccc(N)nc4=O)[C@H](O)[C@@H]3OP(=O)(O)OC[C@H]3O[C@@H](n4ccc(N)nc4=O)[C@H](O)[C@@H]3OP(=O)(O)OC[C@H]3O[C@@H](n4cnc5c(=O)[nH]c(N)nc54)[C@H](O)[C@@H]3OP(=O)(O)OC[C@H]3O[C@@H](n4ccc(N)nc4=O)[C@H](O)[C@@H]3OP(=O)(O)OC[C@H]3O[C@@H](n4cnc5c(=O)[nH]c(N)nc54)[C@H](O)[C@@H]3OP(=O)(O)OC[C@H]3O[C@@H](n4ccc(=O)[nH]c4=O)[C@H](NCCCNCCCCNCCCN)[C@@H]3OP(=O)(O)OC[C@H]3O[C@@H](n4cnc5c(=O)[nH]c(N)nc54)[C@H](O)[C@@H]3OP(=O)(O)OC[C@H]3O[C@@H](n4ccc(N)nc4=O)[C@H](O)[C@@H]3OP(=O)(O)OC[C@H]3O[C@@H](n4cnc5c(=O)[nH]c(N)nc54)[C@H](O)[C@@H]3OP(=O)(O)OC[C@H]3O[C@@H](n4cnc5c(N)ncnc54)[C@H](O)[C@@H]3OP(=O)(O)OC[C@H]3O[C@@H](n4ccc(N)nc4=O)[C@H](O)[C@@H]3OP(=O)(O)OC[C@H]3O[C@@H](n4ccc(N)nc4=O)[C@H](O)[C@@H]3OP(=O)(O)OC[C@H]3O[C@@H](n4ccc(N)nc4=O)[C@H](O)[C@@H]3OP(=O)(O)OC[C@H]3O[C@@H](n4cc(C)c(=O)[nH]c4=O)C[C@@H]3OP(=O)(O)OC[C@H]3O[C@@H](n4ccc(N)nc4=O)[C@H](O)[C@@H]3OP(=O)(O)OC[C@H]3O[C@@H](n4ccc(=O)[nH]c4=O)[C@H](NCCCNCCCCNCCCN)[C@@H]3O)[C@@H](CO)O2)c(=O)[nH]c1=O	57.8	74.5

More lines, now with the values ahead:

Tm [1] [°C]	Tm [2] [°C]	Structure (SMILES)
61.8	79.7	Cc1cn([C@@H]2O[C@H](CO)CN2c2ncnc3c2ncn3[C@@H]2O[C@H](COP(=O)(O)O[C@H]3[C@@H](O)[C@H](n4cnc5c(=O)[nH]c(N)nc54)O[C@@H]3COP(=O)(O)O[C@H]3[C@@H](O)[C@H](n4ccc(N)nc4=O)O[C@@H]3COP(=O)(O)O[C@H]3[C@@H](O)[C@H](n4cnc5c(=O)[nH]c(N)nc54)O[C@@H]3COP(=O)(O)O[C@H]3C[C@H](n4cc(C)c(=O)[nH]c4=O)O[C@@H]3COP(=O)(O)O[C@H]3[C@@H](O)[C@H](n4cnc5c(=O)[nH]c(N)nc54)O[C@@H]3COP(=O)(O)O[C@H]3[C@@H](O)[C@H](n4ccc(N)nc4=O)O[C@@H]3COP(=O)(O)O[C@H]3[C@@H](O)[C@H](n4cnc5c(=O)[nH]c(N)nc54)O[C@@H]3COP(=O)(O)O[C@H]3[C@@H](O)[C@H](n4ccc(N)nc4=O)O[C@@H]3COP(=O)(O)O[C@H]3[C@@H](O)[C@H](n4ccc(N)nc4=O)O[C@@H]3COP(=O)(O)O[C@H]3[C@@H](O)[C@H](n4cnc5c(N)ncnc54)O[C@@H]3COP(=O)(O)O[C@H]3[C@@H](NCCCNCCCCNCCCN)[C@H](n4ccc(=O)[nH]c4=O)O[C@@H]3CO)[C@@H](OP(=O)(O)OC[C@H]3O[C@@H](n4ccc(N)nc4=O)[C@H](O)[C@@H]3OP(=O)(O)OC[C@H]3O[C@@H](n4ccc(N)nc4=O)[C@H](O)[C@@H]3OP(=O)(O)OC[C@H]3O[C@@H](n4ccc(N)nc4=O)[C@H](O)[C@@H]3OP(=O)(O)OC[C@H]3O[C@@H](n4cc(C)c(=O)[nH]c4=O)C[C@@H]3OP(=O)(O)OC[C@H]3O[C@@H](n4ccc(N)nc4=O)[C@H](O)[C@@H]3OP(=O)(O)OC[C@H]3O[C@@H](n4ccc(=O)[nH]c4=O)[C@H](NCCCNCCCCNCCCN)[C@@H]3O)[C@H]2O)c(=O)[nH]c1=O
53	66.8	Cc1cn([C@H]2C[C@H](OP(O)(=S)OC[C@H]3O[C@@H](n4cnc5c(N)ncnc54)[C@H](O)[C@@H]3OP(O)(=S)OC[C@H]3O[C@@H](n4ccc(N)nc4=O)[C@H](O)[C@@H]3OP(O)(=S)OC[C@H]3O[C@@H](n4ccc(N)nc4=O)[C@H](O)[C@@H]3OP(O)(=S)OC[C@H]3O[C@@H](n4cnc5c(=O)[nH]c(N)nc54)[C@H](O)[C@@H]3OP(O)(=S)OC[C@H]3O[C@@H](n4ccc(N)nc4=O)[C@H](O)[C@@H]3OP(O)(=S)OC[C@H]3O[C@@H](n4cnc5c(=O)[nH]c(N)nc54)[C@H](O)[C@@H]3OP(O)(=S)OC[C@H]3O[C@@H](n4ccc(=O)[nH]c4=O)[C@H](NCCCNCCCCNCCCN)[C@@H]3OP(O)(=S)OC[C@H]3O[C@@H](n4cnc5c(=O)[nH]c(N)nc54)[C@H](O)[C@@H]3OP(O)(=S)OC[C@H]3O[C@@H](n4ccc(N)nc4=O)[C@H](O)[C@@H]3OP(O)(=S)OC[C@H]3O[C@@H](n4cnc5c(=O)[nH]c(N)nc54)[C@H](O)[C@@H]3OP(O)(=S)OC[C@H]3O[C@@H](n4cnc5c(N)ncnc54)[C@H](O)[C@@H]3OP(O)(=S)OC[C@H]3O[C@@H](n4ccc(N)nc4=O)[C@H](O)[C@@H]3OP(O)(=S)OC[C@H]3O[C@@H](n4ccc(N)nc4=O)[C@H](O)[C@@H]3OP(O)(=S)OC[C@H]3O[C@@H](n4ccc(N)nc4=O)[C@H](O)[C@@H]3OP(O)(=S)OC[C@H]3O[C@@H](n4cc(C)c(=O)[nH]c4=O)C[C@@H]3OP(O)(=S)OC[C@H]3O[C@@H](n4ccc(N)nc4=O)[C@H](O)[C@@H]3OP(O)(=S)OC[C@H]3O[C@@H](n4ccc(=O)[nH]c4=O)[C@H](NCCCNCCCCNCCCN)[C@@H]3O)[C@@H](CO)O2)c(=O)[nH]c1=O (some centres not stated)
45.8	70.6	Cc1cn([C@@H]2O[C@H](COP(=O)(O)O[C@H]3[C@@H](O)[C@H](n4ccc(N)nc4=O)O[C@@H]3COP(=O)(O)O[C@H]3[C@@H](O)[C@H](n4ccc(N)nc4=O)O[C@@H]3COP(=O)(O)O[C@H]3[C@@H](O)[C@H](n4ccc(N)nc4=O)O[C@@H]3COP(=O)(O)O[C@H]3[C@@H](O)[C@H](n4cnc5c(N)ncnc54)O[C@@H]3COP(=O)(O)O[C@H]3[C@@H](O)[C@H](n4cnc5c(=O)[nH]c(N)nc54)O[C@@H]3COP(=O)(O)O[C@H]3[C@@H](O)[C@H](n4ccc(N)nc4=O)O[C@@H]3COP(=O)(O)O[C@H]3[C@@H](O)[C@H](n4cnc5c(=O)[nH]c(N)nc54)O[C@@H]3COP(=O)(O)O[C@H]3[C@@H](NCCCNCCCCNCCCN)[C@H](n4ccc(=O)[nH]c4=O)O[C@@H]3COP(=O)(O)O[C@H]3[C@@H](O)[C@H](n4cnc5c(=O)[nH]c(N)nc54)O[C@@H]3COP(=O)(O)O[C@H]3[C@@H](O)[C@H](n4ccc(N)nc4=O)O[C@@H]3COP(=O)(O)O[C@H]3[C@@H](O)[C@H](n4cnc5c(=O)[nH]c(N)nc54)O[C@@H]3COP(=O)(O)O[C@H]3[C@@H](O)[C@H](n4ccc(N)nc4=O)O[C@@H]3COP(=O)(O)O[C@H]3[C@@H](O)[C@H](n4ccc(N)nc4=O)O[C@@H]3COP(=O)(O)O[C@H]3[C@@H](O)[C@H](n4cnc5c(N)ncnc54)O[C@@H]3COP(=O)(O)O[C@H]3C[C@H](n4cc(C)c(=O)[nH]c4=O)O[C@@H]3CO)[C@@H](OP(=O)(O)OC[C@H]3O[C@@H](n4ccc(N)nc4=O)[C@H](O)[C@@H]3OP(=O)(O)OC[C@H]3O[C@@H](n4ccc(=O)[nH]c4=O)[C@H](NCCCNCCCCNCCCN)[C@@H]3O)[C@H]2NCCCNCCCCNCCCN)c(=O)[nH]c1=O
